Test results reported in patent US12637478B2, “Compound, preparation method thereof, and antibiotic composition comprising same” (priority 2020, dated 2026).
≈ marks a conversion by molar mass, not a printed value. Where two headings read alike, the source gives them in different places.

What was measured:
S. aureus^MS [1] = test: MIC by broth microdilution (aerobic pathogens), test strain 2; format: cell-based; details: Staphylococcus aureus
Procedure, shortened: (§1)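 Read-out is the concentration achieving 90% growth inhibition relative to non-treated control, determined by broth microdilution under CLSI M7-A5 conditions.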

E. faecalis = test: MIC by broth microdilution (aerobic pathogens), test strain 7; format: cell-based; details: Enterococcus faecalis
Procedure, shortened: as §1

S. aureus^MR = test: MIC by broth microdilution (aerobic pathogens), test strain 3; format: cell-based, Methicillin resistant Staphylococcus aureus; details: Staphylococcus aureus
Experimental: (§2) The antibacterial activity of the compounds of Examples 1 to 48 of the present invention against aerobic pathogens were evaluated by measuring the minimum concentration of the antibiotic capable of inhibiting bacterial growth by 90% compared to the growth of the non-drug treated control group. MIC was measured by the broth microdilution method based on CLSI standards [Reference: Clinical and Laboratory Standards Institute Document. (2000) Methods for Dilution Antimicrobial Susceptibility Test for Bacteria that Grow Aerobically-Fifth Edition: M7-A5. CLSI, Villanova, PA].
(§3) All 13 strains such as methicillin susceptible Staphylococcus aureus (MSSA), methicillin resistant Staphylococcus aureus (MRSA), Vancomycin resistant Staphylococcus aureus (VRSA), Staphylococcus epidermidis, methicillin resistant Staphylococcus epidermidis, Enterococcus faecalis, Vancomycin resistant Enterococcus faecalis, Enterococcus faecium, Vancomycin resistant Enterococcus faecium were used.

S. epidermis^MR = test: MIC by broth microdilution (aerobic pathogens), test strain 6; format: cell-based, Methicillin resistant Staphylococcus epidermidis; details: Staphylococcus epidermidis
Procedure, shortened: as §1

E. faecium^LinR = test: MIC by broth microdilution (aerobic pathogens), test strain 12; format: cell-based, Linezolid resistant Enterococcus faecium; details: Enterococcus faecium
Procedure, shortened: as §1

E. faecalis^VanA = test: MIC by broth microdilution (aerobic pathogens), test strain 8; format: cell-based, Vancomycin resistant Enterococcus faecalis; details: Enterococcus faecalis
Procedure, shortened: as §1

S. aureus^VR = test: MIC by broth microdilution (aerobic pathogens), test strain 4; format: cell-based, Vancomycin resistant Staphylococcus aureus; details: Staphylococcus aureus
Experimental: as §2, §3

M. avium = test: MIC by resazurin (REMA) assay against Mycobacterium, test strain 21; format: cell-based
Experimental: (§4) In order to test the antibacterial activity, the medium of Mycobacterium cultured to late log phase was diluted so as to be 4.0×10^5 cells/well in Middlebrook 7H10 agar medium (Difco) supplemented with 10% oleic acid, albumin, dextrose, catalase (OADC, Becton Dickinson) and 0.05% Tween 80 (Sigma Aldrich) and was dispensed into a 96-well plate. The compounds were treated so that DMSO was 1%, and after 3 days, a 0.025% resazurin (REMA) solution was dispensed, and the growth of the bacteria was confirmed after culturing. The MIC value was measured for the antibacterial activity through resazurin (excitation 530 nm, emission 590 nm).

S. aureus^MS [2] = test: MIC by broth microdilution (aerobic pathogens), test strain 1; format: cell-based; details: Staphylococcus aureus
Procedure, shortened: as §1

M. abscessus = test: MIC by resazurin (REMA) assay against Mycobacterium, test strain 23; format: cell-based; details: Mycobacteroides abscessus
Experimental: as §4

E. faecium = test: MIC by broth microdilution (aerobic pathogens), test strain 10; format: cell-based; details: Enterococcus faecium
Procedure, shortened: as §1

E. faecalis^LinR = test: MIC by broth microdilution (aerobic pathogens), test strain 9; format: cell-based, Linezolid resistant Enterococcus faecalis; details: Enterococcus faecalis
Procedure, shortened: as §1

S. epidermis = test: MIC by broth microdilution (aerobic pathogens), test strain 5; format: cell-based; details: Staphylococcus epidermidis
Procedure, shortened: as §1

M. intracelluare = test: MIC by resazurin (REMA) assay against Mycobacterium, test strain 22; format: cell-based; details: Mycobacterium intracellulare
Experimental: as §4

C. difficile 161 = test: MIC by agar dilution against Clostridioides difficile, test strain 16; format: cell-based; details: test strain 16, C. difficile 161, anaerobic, agar dilution, read-out: MIC
C. difficile 174 = test: MIC by agar dilution against Clostridioides difficile, test strain 18; format: cell-based
M. tuberculosis = test: MIC by resazurin (REMA) assay against Mycobacterium, test strain 20; format: cell-based
Experimental: as §4

C. difficile 173 = test: MIC by agar dilution against Clostridioides difficile, test strain 17; format: cell-based
C. difficile 152 = test: MIC by agar dilution against Clostridioides difficile, test strain 14; format: cell-based
C. difficile 159 = test: MIC by agar dilution against Clostridioides difficile, test strain 15; format: cell-based
C. difficile 181 = test: MIC by agar dilution against Clostridioides difficile, test strain 19; format: cell-based
E. faecium^VRE = test: MIC by broth microdilution (aerobic pathogens), test strain 11; format: cell-based, Vancomycin resistant Enterococcus faecium; details: Enterococcus faecium; test strain 11, E. faecium^VRE (vancomycin resistant); read-out: MIC
Experimental: as §2, §3

C. difficile 9689 = test: MIC by agar dilution against Clostridioides difficile, test strain 13; format: cell-based
[3] = test strain 2, S. aureus^MS, read-out: MIC
[4] = test strain 3, S. aureus^MR (methicillin resistant), read-out: MIC
[5] = test strain 6, S. epidermis^MR (methicillin resistant), read-out: MIC
[6] = test strain 12, E. faecium^LinR (linezolid resistant), read-out: MIC
[7] = test strain 8, E. faecalis^VanA (vancomycin resistant), read-out: MIC
[8] = test strain 4, S. aureus^VR (vancomycin resistant), read-out: MIC
[9] = test strain 1, S. aureus^MS, read-out: MIC
[10] = test strain 10, E. faecium, read-out: MIC
[11] = test strain 9, E. faecalis^LinR (linezolid resistant), read-out: MIC
[12] = test strain 18, C. difficile 174, anaerobic, agar dilution, read-out: MIC
[13] = test strain 7, E. faecalis, read-out: MIC
[14] = test strain 17, C. difficile 173, anaerobic, agar dilution, read-out: MIC
[15] = test strain 5, S. epidermis, read-out: MIC
[16] = test strain 21, M. avium, resazurin, read-out: MIC
[17] = test strain 23, M. abscessus, resazurin, read-out: MIC
[18] = test strain 22, M. intracelluare, resazurin, read-out: MIC

Row | SMILES | MIC (S. aureus^MS [1]; [3]) [µg/mL] | MIC (E. faecalis) [µg/mL] | MIC (S. aureus^MR; [4]) [µg/mL] | MIC (S. epidermis^MR; [5]) [µg/mL] | MIC (E. faecium^LinR; [6]) [µg/mL] | MIC (E. faecalis^VanA; [7]) [µg/mL] | MIC (S. aureus^VR; [8]) [µg/mL] | MIC (M. avium) [µg/mL] | MIC (S. aureus^MS [2]; [9]) [µg/mL] | MIC (M. abscessus) [µg/mL] | MIC (E. faecium; [10]) [µg/mL] | MIC (E. faecalis^LinR; [11]) [µg/mL] | MIC (S. epidermis) [µg/mL] | MIC (M. intracelluare) [µg/mL] | MIC (C. difficile 161) [µg/mL] | MIC (C. difficile 174; [12]) [µg/mL] | MIC (E. faecalis; [13]) [µg/mL] | MIC (C. difficile 173; [14]) [µg/mL] | MIC (S. epidermis; [15]) [µg/mL] | MIC (S. epidermis^MR) [µg/mL] | further results
1 | C/C=C1\NC(=O)[C@H]([C@@H](C)O)NC(=O)c2csc(n2)-c2ccc(-c3nc(-c4nc(C(=O)NC5(C(=O)NCCN6CCN(C)CC6)CC5)cs4)cs3)nc2-c2csc(n2)[C@H]([C@@H](C)O)NC(=O)c2csc(n2)[C@H](C(C)C)NC(=O)c2csc1n2 [Compound 4] | 0.5 (≈ 0.412 µM) | 0.25 (≈ 0.206 µM) | 1 (≈ 0.825 µM) | 0.5 (≈ 0.412 µM) | 1 (≈ 0.825 µM) | 0.5 (≈ 0.412 µM) | 1 (≈ 0.825 µM) | 0.115 (≈ 0.0948 µM) | 0.5 (≈ 0.412 µM) | 0.157 (≈ 0.129 µM) | 0.5 (≈ 0.412 µM) | 1 (≈ 0.825 µM) | 0.25 (≈ 0.206 µM) | 0.143 (≈ 0.118 µM) | – | – | – | – | – | – | –
2 | C/C=C(\NC(=O)c1csc(-c2csc(-c3ccc4c(n3)-c3csc(n3)[C@H]([C@@H](C)O)NC(=O)c3csc(n3)[C@H](C(C)C)NC(=O)c3csc(n3)/C(=C/C)NC(=O)[C@H]([C@@H](C)O)NC(=O)c3csc-4n3)n2)n1)C(=O)NCCN1CCOCC1 [Compound 1] | 0.125 (≈ 0.104 µM) | – | – | 0.125 (≈ 0.104 µM) | 1 (≈ 0.834 µM) | 0.125 (≈ 0.104 µM) | 1 (≈ 0.834 µM) | – | 0.125 (≈ 0.104 µM) | – | 0.5 (≈ 0.417 µM) | 0.125 (≈ 0.104 µM) | – | – | 0.5 (≈ 0.417 µM) | 0.5 (≈ 0.417 µM) | 0.25 (≈ 0.208 µM) | 1 (≈ 0.834 µM) | 0.125 (≈ 0.104 µM) | – | MIC (M. tuberculosis): 0.076 µg/mL (≈ 0.0634 µM)
3 | C/C=C1\NC(=O)[C@H]([C@@H](C)O)NC(=O)c2csc(n2)-c2ccc(-c3nc(-c4nc(C(=O)NC5(C(=O)NCCCN6CCOCC6)CC5)cs4)cs3)nc2-c2csc(n2)[C@H]([C@@H](C)O)NC(=O)c2csc(n2)[C@H](C(C)C)NC(=O)c2csc1n2 [Compound 7] | 0.25 (≈ 0.206 µM) | – | 0.5 (≈ 0.412 µM) | – | 0.5 (≈ 0.412 µM) | 0.25 (≈ 0.206 µM) | 1 (≈ 0.824 µM) | – | 0.25 (≈ 0.206 µM) | – | 0.25 (≈ 0.206 µM) | – | – | – | 0.5 (≈ 0.412 µM) | 0.06 (≈ 0.0494 µM) | 0.25 (≈ 0.206 µM) | 0.06 (≈ 0.0494 µM) | 0.0625 (≈ 0.0515 µM) | 0.125 (≈ 0.103 µM) | MIC (C. difficile 152; test strain 14, C. difficile 152, anaerobic, agar dilution, read-out: MIC): 0.06 µg/mL (≈ 0.0494 µM); MIC (C. difficile 159; test strain 15, C. difficile 159, anaerobic, agar dilution, read-out: MIC): 0.25 µg/mL (≈ 0.206 µM); MIC (C. difficile 181; test strain 19, C. difficile 181, anaerobic, agar dilution, read-out: MIC): 0.25 µg/mL (≈ 0.206 µM); MIC (M. avium; [16]): 0.083 µg/mL (≈ 0.0684 µM); MIC (M. abscessus; [17]): 0.322 µg/mL (≈ 0.265 µM); MIC (E. faecium^VRE): 1 µg/mL (≈ 0.824 µM); MIC (E. faecalis^LinR): 0.125 µg/mL (≈ 0.103 µM); MIC (C. difficile 9689; test strain 13, C. difficile 9689, anaerobic, agar dilution, read-out: MIC): 0.25 µg/mL (≈ 0.206 µM); MIC (M. intracelluare; [18]): 0.107 µg/mL (≈ 0.0882 µM)
4 | C/C=C1\NC(=O)[C@H]([C@@H](C)O)NC(=O)c2csc(n2)-c2ccc(-c3nc(-c4nc(C(=O)NC5(C(=O)NCCN6C(=O)CNC6=O)CC5)cs4)cs3)nc2-c2csc(n2)[C@H]([C@@H](C)O)NC(=O)c2csc(n2)[C@H](C(C)C)NC(=O)c2csc1n2 [Compound 5] | – | 0.25 (≈ 0.206 µM) | – | – | – | – | – | 0.043 (≈ 0.0355 µM) | – | 0.504 (≈ 0.416 µM) | – | – | 0.5 (≈ 0.412 µM) | 0.155 (≈ 0.128 µM) | – | – | – | – | – | 0.5 (≈ 0.412 µM) | MIC (C. difficile 152; 152): 0.5 µg/mL (≈ 0.412 µM); MIC (S. aureus^MS [1]): 0.25 µg/mL (≈ 0.206 µM); MIC (C. difficile 174; 174): 0.25 µg/mL (≈ 0.206 µM); MIC (C. difficile 159; 159): 1 µg/mL (≈ 0.825 µM); MIC (C. difficile 181; 181): 0.125 µg/mL (≈ 0.103 µM); MIC (S. aureus^MR): 1 µg/mL (≈ 0.825 µM); MIC (E. faecium^LinR): 0.5 µg/mL (≈ 0.412 µM); MIC (E. faecalis^VanA): 0.5 µg/mL (≈ 0.412 µM); MIC (S. aureus^VR): 1 µg/mL (≈ 0.825 µM); MIC (S. aureus^MS [2]): 0.25 µg/mL (≈ 0.206 µM); MIC (C. difficile 173; 173): 1 µg/mL (≈ 0.825 µM); MIC (E. faecium): 1 µg/mL (≈ 0.825 µM); MIC (E. faecalis^LinR): 0.5 µg/mL (≈ 0.412 µM); MIC (C. difficile 9689; 9689): 1 µg/mL (≈ 0.825 µM)
5 | C/C=C1\NC(=O)[C@H]([C@@H](C)O)NC(=O)c2csc(n2)-c2ccc(-c3nc(-c4nc(C(=O)NC5(C(=O)NCCN6CCN(S(N)(=O)=O)CC6)CC5)cs4)cs3)nc2-c2csc(n2)[C@H]([C@@H](C)O)NC(=O)c2csc(n2)[C@H](C(C)C)NC(=O)c2csc1n2 [Compound 30] | 1 (≈ 0.783 µM) | – | – | 1 (≈ 0.783 µM) | – | – | – | – | 0.5 (≈ 0.391 µM) | – | – | 0.5 (≈ 0.391 µM) | – | – | – | – | 1 (≈ 0.783 µM) | – | 0.25 (≈ 0.196 µM) | – | MIC (M. avium; [16]): 0.089 µg/mL (≈ 0.0697 µM); MIC (M. abscessus; [17]): 0.559 µg/mL (≈ 0.438 µM); MIC (M. intracelluare; [18]): 0.024 µg/mL (≈ 0.0188 µM)
